Read-outs that look alike come from different tables or passages of the source. Starred links: 1 amine or outer side, 2 acyl side, 3 side chain; linkers in the order of their positions; H or OH if unused. Positions of bridges follow the written chain, without caps; N, C: chain ends. Residues, ends and D or L forms follow the SMILES beside them. *: point of attachment. Pyridine(2,6-diCH2) = c1cc(C[*:1])nc(C[*:2])c1; Pyridine(3,5-bisCH2) = c1ncc(C[*:2])cc1C[*:1]; oXylylene = c1ccc(C[*:2])c(C[*:1])c1; X6 = c1ccc2nc(C[*:2])c(C[*:1])nc2c1; Stearoyl = CCCCCCCCCCCCCCCCCC(=O)*; βAla = NCCC(=O)O
Molecular target: Keap1-Maltose Binding Protein (MBP tag) (Homo sapiens, UniProt Q14145)
Test: Nrf2-Keap1 HTRF (TR-FRET) binding assay: displacement of biotinylated ETGE peptide from Keap1-MBP
[1] = HTRF (TR-FRET), displacement of ETGE-biotin from Keap1-MBP, values banded into grades, read-out: Binding (IC50) ETGE-Keap1

Sequence of Keap1-Maltose Binding Protein (MBP tag) (Q14145 whole entry): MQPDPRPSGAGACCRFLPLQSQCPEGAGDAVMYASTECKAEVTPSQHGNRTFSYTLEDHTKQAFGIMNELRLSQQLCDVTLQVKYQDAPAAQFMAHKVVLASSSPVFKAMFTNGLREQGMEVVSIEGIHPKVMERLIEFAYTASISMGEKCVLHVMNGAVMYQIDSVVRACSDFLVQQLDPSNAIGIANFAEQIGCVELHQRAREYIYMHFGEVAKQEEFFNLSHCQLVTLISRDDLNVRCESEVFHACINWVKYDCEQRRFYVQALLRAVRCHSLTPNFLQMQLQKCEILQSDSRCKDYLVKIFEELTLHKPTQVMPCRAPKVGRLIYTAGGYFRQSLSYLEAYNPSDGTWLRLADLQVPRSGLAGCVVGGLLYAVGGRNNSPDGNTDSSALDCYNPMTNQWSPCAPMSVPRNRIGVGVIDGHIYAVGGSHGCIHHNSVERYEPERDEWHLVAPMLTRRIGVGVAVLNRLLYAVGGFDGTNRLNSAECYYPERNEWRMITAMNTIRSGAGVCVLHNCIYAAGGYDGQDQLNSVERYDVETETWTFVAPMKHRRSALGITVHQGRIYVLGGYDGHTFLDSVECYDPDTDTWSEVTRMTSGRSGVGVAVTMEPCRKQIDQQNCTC

Structure (SMILES) | IC50 [1] | IC50
CCCCCCCCCCCCCCCCCC(=O)NCCC(=O)N[C@@H](CCCCN)C(=O)N[C@@H](CCCCN)C(=O)N[C@H]1CSCc2ccccc2CSC[C@@H](C(=O)N[C@@H](CC(C)C)C(=O)N2CCC[C@H]2C(N)=O)NC(=O)[C@H](CCC(=O)O)NC(=O)CNC(=O)[C@H]([C@@H](C)O)NC(=O)[C@H](CCC(=O)O)NC(=O)[C@@H]2CCCN2C(=O)[C@H](CC(=O)O)NC1=O [Example 57, {[Stearyl-βAla-Lys-Lys-Cys(&^1)-Asp-Pro-Glu-Thr-Gly-Glu-Cys(&^2)-Leu-Pro-NH2][&^1(1,2-phenylenediyl)dimethylene&^2]}] ({Stearoyl-βAla}-KKCDPETGECLP-NH2; linker 3-10 via oXylylene) | < 1 nM | –
CC(C)C[C@H](NC(=O)[C@H](CC(C)C)NC(=O)[C@@H]1CSCc2cc3ccccc3cc2CSC[C@H](NC(=O)[C@H](CC(C)C)NC(=O)[C@@H](N)CC(C)C)C(=O)N[C@@H](CC(=O)O)C(=O)N2CCC[C@H]2C(=O)N[C@@H](CCC(=O)O)C(=O)N[C@@H]([C@@H](C)O)C(=O)NCC(=O)N[C@@H](CCC(=O)O)C(=O)N1)C(=O)NCCC(=O)N[C@@H](CCCNC(=N)N)C(=O)N[C@@H](CCCCN)C(=O)N[C@@H](CCCCN)C(=O)N[C@@H](CCCNC(=N)N)C(=O)N[C@@H](CCCNC(=N)N)C(=O)N[C@@H](CCC(N)=O)C(=O)N[C@@H](CCCNC(=N)N)C(=O)N[C@@H](CCCNC(=N)N)C(=O)N[C@@H](CCCNC(=N)N)C(N)=O [Example 58] | < 1 nM | –
Cc1cc(C)c2c(C)c1CSC[C@@H](C(=O)N[C@@H](CC(C)C)C(=O)N[C@@H](CC(C)C)C(=O)NCCC(=O)N[C@@H](CCCNC(=N)N)C(=O)N[C@@H](CCCCN)C(=O)N[C@@H](CCCCN)C(=O)N[C@@H](CCCNC(=N)N)C(=O)N[C@@H](CCCNC(=N)N)C(=O)N[C@@H](CCC(N)=O)C(=O)N[C@@H](CCCNC(=N)N)C(=O)N[C@@H](CCCNC(=N)N)C(=O)N[C@@H](CCCNC(=N)N)C(N)=O)NC(=O)[C@H](CCC(=O)O)NC(=O)CNC(=O)[C@H]([C@@H](C)O)NC(=O)[C@H](CCC(=O)O)NC(=O)[C@@H]1CCCN1C(=O)[C@H](CC(=O)O)NC(=O)[C@@H](NC(=O)[C@H](CC(C)C)NC(=O)[C@@H](N)CC(C)C)CSC2 [Example 59] | < 1 nM | –
CC(C)C[C@H](NC(=O)[C@H](CC(C)C)NC(=O)[C@@H]1CSCc2ccccc2CSC[C@H](NC(=O)[C@H](CC(C)C)NC(=O)[C@@H](N)CC(C)C)C(=O)N[C@@H](CC(=O)O)C(=O)N2CCC[C@H]2C(=O)N[C@@H](CCC(=O)O)C(=O)N[C@@H]([C@@H](C)O)C(=O)NCC(=O)N[C@@H](CCC(=O)O)C(=O)N1)C(=O)NCCC(=O)N[C@@H](CCCNC(=N)N)C(=O)N[C@@H](CCCCN)C(=O)N[C@@H](CCCCN)C(=O)N[C@@H](CCCNC(=N)N)C(=O)N[C@@H](CCCNC(=N)N)C(=O)N[C@@H](CCC(N)=O)C(=O)N[C@@H](CCCNC(=N)N)C(=O)N[C@@H](CCCNC(=N)N)C(=O)N[C@@H](CCCNC(=N)N)C(N)=O [Example 60] | < 1 nM | –
CCCCCCCCCCCCCCCCCC(=O)NCCC(=O)N[C@@H](CC(C)C)C(=O)N[C@@H](CCC(N)=O)C(=O)N[C@H]1CSCc2nc3ccccc3nc2CSC[C@@H](C(=O)N[C@@H](CC(C)C)C(=O)N2CCC[C@H]2C(N)=O)NC(=O)[C@H](CCC(=O)O)NC(=O)CNC(=O)[C@H]([C@@H](C)O)NC(=O)[C@H](CCC(=O)O)NC(=O)[C@@H]2CCCN2C(=O)[C@H](CC(=O)O)NC1=O [Example 61, {[Stearyl-βAla-Leu-Gln-Cys(&^1)-Asp-Pro-Glu-Thr-Gly-Glu-Cys(&^2)-Leu-Pro-NH2][&^1(quinoxaline)2,3-diyldimethylene&^2]}] ({Stearoyl-βAla}-LQCDPETGECLP-NH2; linker 3-10 via X6) | 1 to 100 nM | –
CCCCCCCCCCCCCCCCCC(=O)NCCC(=O)N[C@@H](CC(C)C)C(=O)N[C@@H](CCC(N)=O)C(=O)N[C@H]1CSCc2cccc(n2)CSC[C@@H](C(=O)N[C@@H](CC(C)C)C(=O)N2CCC[C@H]2C(N)=O)NC(=O)[C@H](CCC(=O)O)NC(=O)CNC(=O)[C@H]([C@@H](C)O)NC(=O)[C@H](CCC(=O)O)NC(=O)[C@@H]2CCCN2C(=O)[C@H](CC(=O)O)NC1=O [Example 62, {[Stearyl-βAla-Leu-Gln-Cys(&^1)-Asp-Pro-Glu-Thr-Gly-Glu-Cys(&^2)-Leu-Pro-NH2][&^1(pyridine)2,6-diyldimethylene&^2]}] ({Stearoyl-βAla}-LQCDPETGECLP-NH2; linker 3-10 via Pyridine(2,6-diCH2)) | 1 to 100 nM | –
CC(=O)N[C@H]1C[C@H]2C(=O)N[C@@H](CCC(N)=O)C(=O)N[C@H]3CSCc4ccccc4CSC[C@H](NC(=O)[C@H](CCC(=O)O)NC(=O)CNC(=O)[C@H]([C@@H](C)O)NC(=O)[C@H](CCC(=O)O)NC(=O)[C@@H]4CCCN4C(=O)[C@H](CC(=O)O)NC3=O)C(=O)N[C@@H](CC(C)C)C(=O)N3CCC[C@@H]3C(=O)N2C1 [Example 64, {[&^1Pro((4S)-NH-Acetyl)-Gln-Cys(&^2)-Asp-Pro-Glu-Thr-Gly-Glu-Cys(&^3)-Leu-D-Pro&^1][&^2(1,2-phenylenediy1)dimethylene&^3]}] | – | < 1 nM
CCCCCCCCCCCCCCCCCC(=O)NCCC(=O)N[C@@H](CC(C)C)C(=O)N[C@@H](CCC(N)=O)C(=O)N[C@H]1CSCc2cncc(c2)CSC[C@@H](C(=O)N[C@@H](CC(C)C)C(=O)N2CCC[C@H]2C(N)=O)NC(=O)[C@H](CCC(=O)O)NC(=O)CNC(=O)[C@H]([C@@H](C)O)NC(=O)[C@H](CCC(=O)O)NC(=O)[C@@H]2CCCN2C(=O)[C@H](CC(=O)O)NC1=O [Example 65, {[Stearyl-βAla-Leu-Gln-Cys(&^1)-Asp-Pro-Glu-Thr-Gly-Glu-Cys(&^2)-Leu-Pro-NH2][&^1(pyridine)3,5-diyldimethylene&^2]}] ({Stearoyl-βAla}-LQCDPETGECLP-NH2; linker 3-10 via Pyridine(3,5-bisCH2)) | < 1 nM | –
Cc1cc(C)c2c(C)c1CSC[C@@H](C(=O)N[C@@H](CC(C)C)C(=O)N1CCC[C@H]1C(=O)NCCC(=O)N[C@@H](CCCNC(=N)N)C(=O)N[C@@H](CCCCN)C(=O)N[C@@H](CCCCN)C(=O)N[C@@H](CCCNC(=N)N)C(=O)N[C@@H](CCCNC(=N)N)C(=O)N[C@@H](CCC(N)=O)C(=O)N[C@@H](CCCNC(=N)N)C(=O)N[C@@H](CCCNC(=N)N)C(=O)N[C@@H](CCCNC(=N)N)C(N)=O)NC(=O)[C@H](CCC(=O)O)NC(=O)CNC(=O)[C@H]([C@@H](C)O)NC(=O)[C@H](CCC(=O)O)NC(=O)[C@@H]1CCCN1C(=O)[C@H](CC(=O)O)NC(=O)[C@@H](NC(=O)[C@H](CCC(N)=O)NC(=O)[C@@H](N)CC(C)C)CSC2 [Example 67] | 1 to 100 nM | –
CC(C)C[C@H](NC(=O)[C@@H]1CSCc2cc3ccccc3cc2CSC[C@H](NC(=O)[C@H](CCC(N)=O)NC(=O)[C@@H](N)CC(C)C)C(=O)N[C@@H](CC(=O)O)C(=O)N2CCC[C@H]2C(=O)N[C@@H](CCC(=O)O)C(=O)N[C@@H]([C@@H](C)O)C(=O)NCC(=O)N[C@@H](CCC(=O)O)C(=O)N1)C(=O)N1CCC[C@H]1C(=O)NCCC(=O)N[C@@H](CCCNC(=N)N)C(=O)N[C@@H](CCCNC(=N)N)C(=O)N[C@@H](CCCNC(=N)N)C(=O)N[C@@H](CCCNC(=N)N)C(=O)N[C@@H](CCCNC(=N)N)C(=O)N[C@@H](CCCNC(=N)N)C(=O)N[C@@H](CCCNC(=N)N)C(=O)N[C@@H](CCCNC(=N)N)C(N)=O [Example 68, {[H-Leu-G1n-Cys(&^1)-Asp-Pro-Glu-Thr-G1y-Glu-Cys(&^2)-Leu-Pro-βAla-Arg8-NH2][&^1(naphthalene)2,3-diyldimethylene&^2]}] | 1 to 100 nM | –

From US20200255478A1, “NOVEL COMPOUNDS ACTIVATING THE NRF2 PATHWAY” (Almirall, S.A., priority 2017, published 2020)
